Reference: patent publication US20060173015A1, “Cyclohexyldiamines as selective alpha 1a/1d adrenoreceptor antagonists for the treatment of benign prostatic hypertrophy and lower urinary tract symptoms” (priority 2004, published 2006)

Tests used:
[1] = test system: Prostatic Intraurethral Pressure (IUP); assay: Phenylephrine-induced prostatic IUP in an anesthetized canine model; type: in vivo; settings: anesthetized dog
Experimental: In-Vivo Evaluation of α1-Adrenergic Antagonists on Prostatic Intraurethral Pressure (IUP) and Mean Arterial Pressure (MAP) in an Anesthetized Canine Model
An anesthetized dog was fitted with a balloon catheter for the measurement of changes in prostatic IUP and with a non-invasive blood pressure (NIBP) cuff for determination of MAP.
The pressor effects of challenge doses (i.v.) of the α-adrenergic agonist phenylephrine upon IUP and MAP were measured before and at various time points after a single dose (i.v.) of an α-adrenergic antagonist test compound (Compound 69) of the present invention.
Each treatment group was dosed with a test compound (0.01, 0.03, 0.1 and 0.5 mg/kg) in four separate experiments. The first challenge dose of phenylephrine was administered 30 mins prior to the test compound dose and at 30 min intervals thereafter for a total time period of 5 hrs (i.e at time minus 30 mins, time plus 30 mins, 1 hr, 1.5 hrs, 2 hrs, 2.5 hrs, 3 hrs, 3.5 hrs, 4 hrs, 4.5 hrs and 5 hrs).
The animals were fasted overnight, anesthetized with propofol (4 mg/kg IV or to effect), then intubated and anesthesia maintained using inhalation isoflurane (1-2% in oxygen at a flow rate of 2 l/min) with animals breathing spontaneously.
A 7F Fogarty balloon catheter lubricated with a water-soluble jelly was inserted into the urethra and advanced into the bladder (approximately 40 cm). The balloon was inflated with approximately water (0.2 mL). The catheter was slowly withdrawn from the bladder to just past the point of first resistance from the bladder neck in order to position the balloon within the prostatic urethra. The balloon was then inflated to approximately 0.7 mL. The balloon port of the catheter was connected to a Gould Statham pressure transducer, the output of which was connected to the pressure input of a Physio Control VSM1 Patient Monitor.
A test compound was administered via the cephalic vein using an appropriately sized IV catheter (Surflo, Terumo Medical Corporation or equivalent).
Prior to test compound administration, IUP and MAP responses to an individualized dose of phenylephrine (either 10 or 15 μg/kg IV, depending on the individual animal's response) was repeated 2 to 3 times to establish a baseline response. After test compound administration, the individualized phenylephrine dose was administered to each animal at 30 minute intervals over a period of 5 hours.
Data for phenylephrine-induced changes in IUP and MAP were tabulated for each treatment group and each experiment. A mean value and standard deviation for the phenylephrine-induced changes to the effect of a test compound on IUP and MAP at each dose was calculated and tabulated for each treatment group over the length of the 5.5 hour study.

α1b-AR = target: T1, α1b-AR (Homo sapiens, UniProt P35368); assay: α1-Adrenergic receptor radio-ligand (125I-HEAT) binding assay, α1b subtype; settings: Receptor Binding, Ki α1b-AR, COS-7 cell membranes, 125I-HEAT
T1 sequence (P35368 1-520): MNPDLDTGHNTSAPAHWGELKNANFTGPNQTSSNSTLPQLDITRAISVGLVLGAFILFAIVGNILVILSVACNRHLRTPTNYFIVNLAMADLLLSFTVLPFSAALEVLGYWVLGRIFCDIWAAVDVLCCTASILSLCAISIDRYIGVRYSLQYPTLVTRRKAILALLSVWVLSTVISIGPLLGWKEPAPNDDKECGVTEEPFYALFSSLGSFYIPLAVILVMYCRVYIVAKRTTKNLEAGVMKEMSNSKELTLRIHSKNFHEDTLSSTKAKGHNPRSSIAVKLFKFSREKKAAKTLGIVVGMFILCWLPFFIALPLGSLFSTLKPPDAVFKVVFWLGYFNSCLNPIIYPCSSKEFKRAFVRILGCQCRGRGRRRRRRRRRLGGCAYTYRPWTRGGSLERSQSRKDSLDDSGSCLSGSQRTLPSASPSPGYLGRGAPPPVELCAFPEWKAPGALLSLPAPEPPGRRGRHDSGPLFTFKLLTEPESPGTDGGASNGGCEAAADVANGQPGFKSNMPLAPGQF

`COc1ccc(S(=O)(=O)N[C@H]2CC[C@@H](N3CCN(c4ccccc4OCC(F)(F)F)CC3)CC2)cc1OC` [Cpd 69, 3,4-Dimethoxy-N-cis-(4-{4-[2-(2,2,2-trifluoro-ethoxy)-phenyl]-piperazin-1-yl}-cyclohexyl)-benzenesulfonamide] was tested, and the “IUP, normalized % of baseline (mean)” value ([1]; 0.01 mg/kg i.v., 0 hrs (baseline)) was 100%, the “IUP, normalized % of baseline (mean)” value ([1]; 0.01 mg/kg i.v., 0.5 hrs after dose) was 78.1% and the “IUP, normalized % of baseline (mean)” value ([1]; 0.01 mg/kg i.v., 1 hrs after dose) was 81.9%. For the same compound, the “IUP, normalized % of baseline (mean)” value ([1]; 0.01 mg/kg i.v., 2 hrs after dose) was 83.6%, the “IUP, normalized % of baseline (mean)” value ([1]; 0.01 mg/kg i.v., 3 hrs after dose) was 83.3% and the “IUP, normalized % of baseline (mean)” value ([1]; 0.01 mg/kg i.v., 4 hrs after dose) was 83.0%. The “IUP, normalized % of baseline (mean)” value ([1]; 0.01 mg/kg i.v., 5 hrs after dose) was 84.5%, the “IUP, normalized % of baseline (mean)” value ([1]; 0.03 mg/kg i.v., 0 hrs (baseline)) was 100% and the “IUP, normalized % of baseline (mean)” value ([1]; 0.03 mg/kg i.v., 0.5 hrs after dose) was 64.8%. The “IUP, normalized % of baseline (mean)” value ([1]; 0.03 mg/kg i.v., 1 hrs after dose) was 64.8%, the “IUP, normalized % of baseline (mean)” value ([1]; 0.03 mg/kg i.v., 1.5 hrs after dose) was 70.8% and the “IUP, normalized % of baseline (mean)” value ([1]; 0.03 mg/kg i.v., 2 hrs after dose) was 71.1%. For the same compound, the “IUP, normalized % of baseline (mean)” value ([1]; 0.03 mg/kg i.v., 2.5 hrs after dose) was 79.1%, the “IUP, normalized % of baseline (mean)” value ([1]; 0.03 mg/kg i.v., 3 hrs after dose) was 81.1% and the “IUP, normalized % of baseline (mean)” value ([1]; 0.03 mg/kg i.v., 3.5 hrs after dose) was 81.6%. For the same compound, the “IUP, normalized % of baseline (mean)” value ([1]; 0.03 mg/kg i.v., 4 hrs after dose) was 84.8%, the “IUP, normalized % of baseline (mean)” value ([1]; 0.03 mg/kg i.v., 4.5 hrs after dose) was 83.5% and the “IUP, normalized % of baseline (mean)” value ([1]; 0.03 mg/kg i.v., 5 hrs after dose) was 83.8%. For the same compound, the “IUP, normalized % of baseline (mean)” value ([1]; 0.1 mg/kg i.v., 0 hrs (baseline)) was 100%, the “IUP, normalized % of baseline (mean)” value ([1]; 0.1 mg/kg i.v., 0.5 hrs after dose) was 39.5% and the “IUP, normalized % of baseline (mean)” value ([1]; 0.1 mg/kg i.v., 1 hrs after dose) was 48.4%. For the same compound, the “IUP, normalized % of baseline (mean)” value ([1]; 0.1 mg/kg i.v., 1.5 hrs after dose) was 56.3%, the “IUP, normalized % of baseline (mean)” value ([1]; 0.1 mg/kg i.v., 2 hrs after dose) was 61.3% and the “IUP, normalized % of baseline (mean)” value ([1]; 0.1 mg/kg i.v., 2.5 hrs after dose) was 67.1%. For the same compound, the “IUP, normalized % of baseline (mean)” value ([1]; 0.1 mg/kg i.v., 3 hrs after dose) was 69.9%, the “IUP, normalized % of baseline (mean)” value ([1]; 0.1 mg/kg i.v., 3.5 hrs after dose) was 75.2% and the “IUP, normalized % of baseline (mean)” value ([1]; 0.1 mg/kg i.v., 4 hrs after dose) was 78.8%. The “IUP, normalized % of baseline (mean)” value ([1]; 0.1 mg/kg i.v., 4.5 hrs after dose) was 74.2%, the “IUP, normalized % of baseline (mean)” value ([1]; 0.1 mg/kg i.v., 5 hrs after dose) was 77.3% and the “IUP, normalized % of baseline (mean)” value ([1]; 0.5 mg/kg i.v., 0 hrs (baseline)) was 100%. The “IUP, normalized % of baseline (mean)” value ([1]; 0.5 mg/kg i.v., 0.5 hrs after dose) was 17.4%, the “IUP, normalized % of baseline (mean)” value ([1]; 0.5 mg/kg i.v., 1 hrs after dose) was 16.1% and the “IUP, normalized % of baseline (mean)” value ([1]; 0.5 mg/kg i.v., 1.5 hrs after dose) was 27.0%. The “IUP, normalized % of baseline (mean)” value ([1]; 0.5 mg/kg i.v., 2 hrs after dose) was 29.1%, the “IUP, normalized % of baseline (mean)” value ([1]; 0.5 mg/kg i.v., 2.5 hrs after dose) was 36.1% and the “IUP, normalized % of baseline (mean)” value ([1]; 0.5 mg/kg i.v., 3 hrs after dose) was 38.8%. For the same compound, the “IUP, normalized % of baseline (mean)” value ([1]; 0.5 mg/kg i.v., 3.5 hrs after dose) was 45.5%, the “IUP, normalized % of baseline (mean)” value ([1]; 0.5 mg/kg i.v., 4 hrs after dose) was 46.4% and the “IUP, normalized % of baseline (mean)” value ([1]; 0.5 mg/kg i.v., 4.5 hrs after dose) was 48.0%. For the same compound, the “IUP, normalized % of baseline (mean)” value ([1]; 0.5 mg/kg i.v., 5 hrs after dose) was 54.4% and the Ki (α1b-AR) was 0.1 µM.
